Reference: patent EP4781990A1, “PHARMACEUTICAL COMPOSITION CONTAINING HETEROARYL OXYNAPHTHALENE COMPOUND, PREPARATION METHOD THEREFOR, AND USE THEREOF” (Shanghai Runshi Medical Technology Co., Ltd, priority 2023, dated 2025)

Experiments:
Format in all cases: physicochemical
[1] = Solid stability experiment of compound (A); conditions: for Crystalline form: XRPD
[2] = Water sorption and desorption experiment (DVS, hygroscopicity); conditions: 40-80% relative humidity, 25 °C
Description: In the following examples, the related analysis and detection conditions are as follows: 1. X-ray powder diffractometer (XRPD) • Instrument: BRUKER D8 Advance X-ray powder diffractometer, Germany. • Conditions: Cu-Kα radiation (λ = 1.5418 Å), tube voltage: 40 kV, tube current: 40 mA, 2θ scanning range: 3-40°, scanning step size: 0.02° (2θ), scanning speed: 10 s/step, sample tray: a zero background sample tray. • Method: a sample was spread on a zero background monocrystalline silicon sample tray and was gently pressed using a medicine spoon to be flat for measurement. 2. Chloride • Detection instrument: Dionex ICS-900 ion chromatograph • Column: Dionex Ion Pac AS11-HC anion chromatographic column (specification: 4 × 250 mm) • Determination method: 10 µL of each of the control solution and the sample solution was measured precisely and injected into the ion chromatograph, the chromatogram was recorded, and the chloride ion content was calculated based on peak area according to the external standard method. 3. Dynamic vapor sorption/desorption (DVS) analysis Instrument: DVS Intrinsic plus (SMS, UK). Method: a sample was placed in a tared sample basket, the weight of the sample was automatically measured, and the sample was analyzed according to the parameters in the table below.
The samples obtained in Preparation Example 2 and Preparation Example 3 were investigated for moisture sorption and desorption under the relative humidity of 40-80% using a dynamic vapor sorption (DVS) instrument at a temperature of 25 °C to determine the hygroscopicity of various salt forms. Table 6 Hygroscopicity experimental results of different salt forms of compound (I) (DVS, 40-80%)

[3] = Grinding stability experiment of compound (A); conditions: XRPD

Purity/% ([1]; 40 °C/75% RH (open), 7 days) [%]	Crystalline form ([1]; 40 °C/75% RH (open), 7 days)	Purity/% ([1]; 60 °C (sealed), 7 days) [%]	Crystalline form ([1]; 60 °C (sealed), 7 days)	Purity/% ([1]; Initial state, 0 days) [%]	Crystalline form ([1]; Initial state, 0 days)	Crystalline form ([1]; room temperature/92.5% RH (open), 10 days)	Hygroscopicity (%) [2] [%]	Hygroscopicity (in words) [2]	Crystalline form change after grinding with organic solvent ([3]; ground after dropwise addition of methanol, ethanol, acetone, acetonitrile, or ethyl acetate)	Crystalline form change after grinding ([3]; mechanically ground using a mortar for 2 min and 5 min)	Compound
99.86	Crystalline form I	99.85	Crystalline form I	99.85	Crystalline form I	Crystalline form I	0.65	slightly hygroscopic	no crystalline form change occurred	no crystalline form change occurred	CNC(=O)c1cccc2cc(Oc3ccnc(NC(=O)c4ccc(N5C[C@@H](C)N[C@@H](C)C5)cc4)c3)ccc12 [Compound (A)]
–	–	–	–	–	–	–	2.11	–	–	–	Fumarate
–	–	–	–	–	–	–	3.75	–	–	–	Phosphate
